How the values were obtained:
Type in all cases: functional
Lactobacillus sp. = test: Antimicrobial activity against Lactobacillus sp. by Wadsworth agar dilution method in presence of beta-lactamase inhibitor Sulbactam
[1] = tested on: Propionibacterium propionicum; test: Antimicrobial activity against Propionibacterium propionicum by Wadsworth agar dilution method in presence of beta-lactamase inhibitor Sulbactam; details: Arachnia propionica
[2] = tested on: Clostridium lactatifermentans; test: Antimicrobial activity against Clostridium lactatifermentans by Wadsworth agar dilution method in presence of beta-lactamase inhibitor Sulbactam; details: Anaerotignum lactatifermentans
[3] = tested on: Limosilactobacillus fermentum; test: Antimicrobial activity against Lactobacillus fermentum by Wadsworth agar dilution method in presence of beta-lactamase inhibitor Sulbactam
Bacteroides uniformis = test: Antimicrobial activity against Bacteroides uniformis by Wadsworth agar dilution method in presence of beta-lactamase inhibitor Sulbactam
Ruminococcus gnavus = test: Antimicrobial activity against Ruminococcus gnavus by Wadsworth agar dilution method in presence of beta-lactamase inhibitor Sulbactam; details: Mediterraneibacter gnavus
[4] = tested on: Clostridium acetobutylicum; test: Antimicrobial activity against Clostridium acetobutylicum by Wadsworth agar dilution method in presence of beta-lactamase inhibitor Sulbactam
Clostridium disporicum = test: Antimicrobial activity against Clostridium disporicum by Wadsworth agar dilution method in presence of beta-lactamase inhibitor Sulbactam
[5] = tested on: Ruminococcus flavefaciens; test: Antimicrobial activity against Ruminococcus flavefaciens by Wadsworth agar dilution method in presence of beta-lactamase inhibitor Sulbactam
[6] = tested on: Clostridium aminobutyricum; test: Antimicrobial activity against Clostridium aminobutyricum by Wadsworth agar dilution method in presence of beta-lactamase inhibitor Sulbactam
Bacteroides caccae = test: Antimicrobial activity against Bacteroides caccae by Wadsworth agar dilution method in presence of beta-lactamase inhibitor Sulbactam
Bacteroides nordii = test: Antimicrobial activity against Bacteroides nordii by Wadsworth agar dilution method in presence of beta-lactamase inhibitor Sulbactam
Fusobacterium nucleatum = test: Antimicrobial activity against Fusobacterium nucleatum by Wadsworth agar dilution method in presence of beta-lactamase inhibitor Sulbactam
Flavonifractor plautii = test: Antimicrobial activity against Clostridium orbiscindens by Wadsworth agar dilution method in presence of beta-lactamase inhibitor Sulbactam
[7] = tested on: Parabacteroides distasonis; test: Antimicrobial activity against Parabacteroides distasonis by Wadsworth agar dilution method in presence of beta-lactamase inhibitor Sulbactam
[8] = tested on: Paeniclostridium sordellii; test: Antimicrobial activity against Clostridium sordellii by Wadsworth agar dilution method in presence of beta-lactamase inhibitor Sulbactam; details: Paraclostridium sordellii
Fusobacterium mortiferum = test: Antimicrobial activity against Fusobacterium mortiferum by Wadsworth agar dilution method
Collinsella aerofaciens = test: Antimicrobial activity against Colinsella aerofaciens by Wadsworth agar dilution method in presence of beta-lactamase inhibitor Sulbactam
Eubacterium biforme = test: Antimicrobial activity against Eubacterium biforme by Wadsworth agar dilution method in presence of beta-lactamase inhibitor Sulbactam; details: Holdemanella biformis
[9] = tested on: Peptoniphilus asaccharolyticus; test: Antimicrobial activity against Peptoniphilus asaccharolyticus by Wadsworth agar dilution method in presence of beta-lactamase inhibitor Sulbactam
Porphyromonas somerae = test: Antimicrobial activity against Porphyromonas somerae by Wadsworth agar dilution method in presence of beta-lactamase inhibitor Sulbactam
Thomasclavelia ramosa = test: Antimicrobial activity against Clostridium ramosum by Wadsworth agar dilution method in presence of beta-lactamase inhibitor Sulbactam
[10] = tested on: Limosilactobacillus reuteri; test: Antimicrobial activity against Lactobacillus reuteri by Wadsworth agar dilution method in presence of beta-lactamase inhibitor Sulbactam
Bifidobacterium longum = test: Antimicrobial activity against Bifidobacterium longum by Wadsworth agar dilution method in presence of beta-lactamase inhibitor Sulbactam
Clostridium septicum = test: Antimicrobial activity against Clostridium septicum by Wadsworth agar dilution method in presence of beta-lactamase inhibitor Sulbactam
[11] = tested on: Catenibacterium mitsuokai; test: Antimicrobial activity against Catenibacterium mitsuokai by Wadsworth agar dilution method in presence of beta-lactamase inhibitor Sulbactam
[12] = tested on: Pseudoramibacter alactolyticus; test: Antimicrobial activity against Eubacterium alactolyticum by Wadsworth agar dilution method in presence of beta-lactamase inhibitor Sulbactam
Bacteroides stercoris = test: Antimicrobial activity against Bacteroides stercoris by Wadsworth agar dilution method in presence of beta-lactamase inhibitor Sulbactam

CC1(C)S[C@@H]2[C@H](NC(=O)[C@H](N)c3ccccc3)C(=O)N2[C@H]1C(=O)O [AMPICILLIN]
0.5 mg/L: MIC90 (Porphyromonas somerae)
32 mg/L: MIC90 (Bacteroides caccae) | MIC90 [7]
1 mg/L: MIC90 [2] | MIC90 [4] | MIC90 (Clostridium disporicum) | MIC90 [6] | MIC90 [8] | MIC50 (Fusobacterium mortiferum) | MIC90 (Thomasclavelia ramosa) | MIC90 (Clostridium septicum)
0.25 mg/L: MIC (Lactobacillus sp.) | MIC50 (Lactobacillus sp.) | MIC [1] | MIC50 [1] | MIC [2] | MIC50 [2] | MIC [3] | MIC50 [3] | MIC (Ruminococcus gnavus) | MIC50 (Ruminococcus gnavus) | MIC [4] | MIC50 [4] | MIC (Clostridium disporicum) | MIC50 (Clostridium disporicum) | MIC [5] | MIC50 [5] | MIC [6] | MIC50 [6] | MIC50 (Fusobacterium nucleatum) | MIC90 (Fusobacterium nucleatum) | MIC [8] | MIC50 [8] | MIC (Collinsella aerofaciens) | MIC50 (Collinsella aerofaciens) | MIC (Eubacterium biforme) | MIC50 (Eubacterium biforme) | MIC [9] | MIC50 [9] | MIC (Porphyromonas somerae) | MIC50 (Porphyromonas somerae) | MIC (Thomasclavelia ramosa) | MIC50 (Thomasclavelia ramosa) | MIC [10] | MIC50 [10] | MIC (Bifidobacterium longum) | MIC50 (Bifidobacterium longum) | MIC (Clostridium septicum) | MIC50 (Clostridium septicum) | MIC [11] | MIC50 [11] | MIC [12] | MIC50 [12]
4 mg/L: MIC90 (Flavonifractor plautii) | MIC90 (Fusobacterium mortiferum)
16 mg/L: MIC90 (Bacteroides uniformis) | MIC50 (Bacteroides caccae) | MIC90 (Bacteroides nordii) | MIC50 [7] | MIC90 (Bacteroides stercoris)
2 mg/L: MIC90 (Lactobacillus sp.) | MIC90 [1] | MIC90 [3] | MIC50 (Bacteroides uniformis) | MIC90 (Ruminococcus gnavus) | MIC90 [5] | MIC50 (Bacteroides nordii) | MIC (Flavonifractor plautii) | MIC50 (Flavonifractor plautii) | MIC90 (Collinsella aerofaciens) | MIC90 (Eubacterium biforme) | MIC90 [9] | MIC90 [10] | MIC90 (Bifidobacterium longum) | MIC90 [11] | MIC90 [12] | MIC50 (Bacteroides stercoris)
